Results reported in PubChem BioAssay AID1259411 (Chemical Carcinogenesis Research Information System (CCRIS), 2018).
Activity calls are given as the source filed them. No rule for the calls is given here.

Test system: rodent carcinogenicity bioassays, tumor incidence
Assay: CCRIS carcinogenicity studies
In short: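 Archive of carcinogenicity, mutagenicity, tumor promotion and tumor inhibition results drawn from journals, NCI reports and other sources, expert-reviewed; covers 1985-2011 and is no longer updated.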

BrCCBr
carcinogen call (Species: FISH, Strain/Sex: JAPANESE MEDAKA/MALE,FEMALE, Route: IMMERSION, Dose: 0, 0.133, 6.2, 18.58 MG/L IN WATER FOR UP TO 97 D (STUDY DURATION: 58 WK), Dose: 0, 0.133, 6.2, 18.58 MG/L IN WATER FOR UP TO 97 D (STUDY DURATION: 58 WK), Tumor Site: Type of Lesion: LIVER: HEPATOCELLULAR ADENOMA, HEPATOCELLULAR CARCINOMA, CHOLANGIOMA, CHOLANGIOCELLULAR CARCINOMA, GALL BLADDER: TUMOR): active; positive | carcinogen call (Species: FISH, Strain/Sex: SHASTA RAINBOW TROUT/MALE, FEMALE, Route: ORAL, Dose: 0, 2000 PPM IN DIET FOR 18 MO (STUDY DURATION: 18 MO), Tumor Site: Type of Lesion: STOMACH: PAPILLOMA): active; positive | carcinogen call (Species: MOUSE, Strain/Sex: B6C3F1/FEMALE, Route: GAVAGE, Dose: 0, 62, 107 MG/KG, TWA IN CORN OIL (STUDY DURATION: 78-90 WK), Dose: 0, 62, 107 MG/KG, TWA IN CORN OIL (STUDY DURATION: 78-90 WK), Tumor Site: Type of Lesion: LUNG: ALVEOLAR/BRONCHIOLAR ADENOMA, CARCINOMA, STOMACH: SQUAMOUS CELL CARCINOMA): active; positive | carcinogen call (Species: MOUSE, Strain/Sex: B6C3F1/FEMALE, Route: INHALATION, Dose: 0, 10, 40 PPM 6 HR/D, 5 D/WK FOR 90-103 WK (STUDY DURATION: 91-104 WK), Dose: 0, 10, 40 PPM 6 HR/D, 5 D/WK FOR 90-103 WK (STUDY DURATION: 91-104 WK), Tumor Site: Type of Lesion: INTEGUMENTARY SYSTEM (SUBCUTANEOUS TISSUE OR RIB): FIBROSARCOMA, NASAL CAVITY: CARCINOMA (NOS), CARCINOMA (NOS) OR ADENO): active; positive | carcinogen call (Species: MOUSE, Strain/Sex: B6C3F1/FEMALE, Route: INHALATION, Dose: 0, 10, 40 PPM 6 HR/D, 5 D/WK FOR 90-103 WK (STUDY DURATION: 91-104 WK), Dose: 0, 10, 40 PPM 6 HR/D, 5 D/WK FOR 90-103 WK (STUDY DURATION: 91-104 WK), Tumor Site: Type of Lesion: NASAL CAVITY: SQUAMOUS CELL PAPILLOMA, CARCINOMA): active; positive | carcinogen call (Species: MOUSE, Strain/Sex: B6C3F1/MALE, Route: GAVAGE, Dose: 0, 62, 107 MG/KG, TWA IN CORN OIL (STUDY DURATION: 77-78 WK), Dose: 0, 62, 107 MG/KG, TWA IN CORN OIL (STUDY DURATION: 77-78 WK), Tumor Site: Type of Lesion: LUNG: ALVEOLAR/BRONCHIOLAR ADENOMA, STOMACH: SQUAMOUS CELL PAPILLOMA, SQUAMOUS CELL CARCINOMA): active; positive | carcinogen call (Species: MOUSE, Strain/Sex: B6C3F1/MALE, Route: INHALATION, Dose: 0, 10, 40 PPM 6 HR/D, 5 D/WK FOR 78 WK (STUDY DURATION: 79 WK), Dose: 0, 10, 40 PPM 6 HR/D, 5 D/WK FOR 78 WK (STUDY DURATION: 79 WK), Tumor Site: Type of Lesion: LUNG: ALVEOLAR/BRONCHIOLAR ADENOMA, ALVEOLAR/BRONCHIOLAR CARCINOMA): active; positive | carcinogen call (Species: MOUSE, Strain/Sex: B6C3F1/MALE, Route: INHALATION, Dose: 0, 10, 40 PPM 6 HR/D, 5 D/WK FOR 90-103 WK (STUDY DURATION: 91-104 WK), Dose: 0, 10, 40 PPM 6 HR/D, 5 D/WK FOR 90-103 WK (STUDY DURATION: 91-104 WK), Tumor Site: Type of Lesion: NASAL CAVITY: SQUAMOUS CELL PAPILLOMA): active; positive | carcinogen call (Species: RAT, Strain/Sex: F344/FEMALE, Route: INHALATION, Dose: 0, 10, 40 PPM 6 HR/D, 5 D/WK FOR 91-103 WK (STUDY DURATION: 92-104 WK), Dose: 0, 10, 40 PPM 6 HR/D, 5 D/WK FOR 91-103 WK (STUDY DURATION: 92-104 WK), Tumor Site: Type of Lesion: NASAL CAVITY: ADENOMA (NOS), CARCINOMA (NOS), ADENOCARCINOMA (NOS);LUNG: ALVEOLAR/BRONCHIOLAR ADENOMA OR CARCINOMA;SPLEE): active; positive | carcinogen call (Species: RAT, Strain/Sex: F344/MALE, Route: INHALATION, Dose: 0, 10, 40 PPM 6 HR/D, 5 D/WK FOR 88-103 WK (STUDY DURATION: 89-104 WK), Dose: 0, 10, 40 PPM 6 HR/D, 5 D/WK FOR 88-103 WK (STUDY DURATION: 89-104 WK), Tumor Site: Type of Lesion: NASAL CAVITY: ADENOMA (NOS), ADENOCARCINOMA (NOS), CARCINOMA (NOS), ADENOMATOUS POLYP (NOS), CIRCULATORY SYSTEM: HEMANGI): active; positive | carcinogen call (Species: RAT, Strain/Sex: OSBORNE-MENDEL/FEMALE, Route: GAVAGE, Dose: 0, 37, 39 MG/KG, TWA IN CORN OIL (STUDY DURATION: 61 WK), Dose: 0, 37, 39 MG/KG, TWA IN CORN OIL (STUDY DURATION: 61 WK), Tumor Site: Type of Lesion: STOMACH: SQUAMOUS CELL CARCINOMA, LIVER: HEPATOCELLULAR CARCINOMA, NEOPLASTIC NODULE): active; positive | carcinogen call (Species: RAT, Strain/Sex: OSBORNE-MENDEL/MALE, Route: GAVAGE, Dose: 0, 38, 41 MG/KG, TWA IN CORN OIL (STUDY DURATION: 49 WK), Dose: 0, 38, 41 MG/KG, TWA IN CORN OIL (STUDY DURATION: 49 WK), Tumor Site: Type of Lesion: BLOOD VESSELS: HEMANGIOSARCOMA, STOMACH: SQUAMOUS CELL CARCINOMA): active; positive | carcinogen call (Species: RAT, Strain/Sex: SPRAGUE-DAWLEY/FEMALE, Route: INHALATION, Dose: 20 PPM 7 HR/D, 5 D/WK FOR 18 MO, Tumor Site: Type of Lesion: SPLEEN: HEMANGIOSARCOMA, ADRENAL GLAND: PHEOCHROMOCYTOMA, CORTICAL ADENOMA, CARCINOMA, MAMMARY GLAND: ADENOMA, FIBROADEN, Tumor Site: Type of Lesion: SPLEEN: HEMANGIOSARCOMA, ADRENAL GLAND: PHEOCHROMOCYTOMA, CORTICAL ADENOMA, CARCINOMA, MAMMARY GLAND: ADENOMA, FIBROADEN): active; positive | carcinogen call (Species: RAT, Strain/Sex: SPRAGUE-DAWLEY/MALE, Route: INHALATION, Dose: 20 PPM 7 HR/D, 5 D/WK FOR 18 MO, Tumor Site: Type of Lesion: SPLEEN: HEMANGIOSARCOMA, ADRENAL GLAND: PHEOCHROMOCYTOMA, CORTICAL ADENOMA, CARCINOMA, INTEGUMENTARY SYSTEM (SUBCUTANEOU, Tumor Site: Type of Lesion: SPLEEN: HEMANGIOSARCOMA, ADRENAL GLAND: PHEOCHROMOCYTOMA, CORTICAL ADENOMA, CARCINOMA, INTEGUMENTARY SYSTEM (SUBCUTANEOU): active; positive

CCC(=O)O[C@H]1CC[C@H]2[C@@H]3CCC4=CC(=O)CC[C@]4(C)[C@H]3CC[C@]12C
carcinogen call (Species: MOUSE, Route: SUBCUTANEOUS IMPLANT, Tumor Site: Type of Lesion: CERVIX, UTERUS): active; positive | carcinogen call (Species: RAT, Route: SUBCUTANEOUS IMPLANT, Tumor Site: Type of Lesion: PROSTATE GLAND): active; positive

C[C@H]1CCCC(=O)CCC/C=C/c2cc(O)cc(O)c2C(=O)O1
carcinogen call (Species: MOUSE, Strain/Sex: B6C3F1/FEMALE, Route: ORAL, Dose: 0, 50, 100 PPM IN DIET, Dose: 0, 50, 100 PPM IN DIET, Tumor Site: Type of Lesion: LIVER: HEPATOCELLULAR ADENOMA, CARCINOMA, PITUITARY GLAND: ADENOMA, CARCINOMA): active; positive | carcinogen call (Species: MOUSE, Strain/Sex: B6C3F1/MALE, Route: ORAL, Dose: 0, 50, 100 PPM IN DIET, Dose: 0, 50, 100 PPM IN DIET, Tumor Site: Type of Lesion: PITUITARY GLAND: ADENOMA, CARCINOMA): active; positive | carcinogen call (Species: RAT, Strain/Sex: F344/FEMALE, Route: ORAL, Dose: 0, 25, 50 PPM IN DIET, Dose: 0, 25, 50 PPM IN DIET): inactive; negative | carcinogen call (Species: RAT, Strain/Sex: F344/MALE, Route: ORAL, Dose: 0, 25, 50 PPM IN DIET, Dose: 0, 25, 50 PPM IN DIET): inactive; negative

CN1COCN(Cc2cnc(Cl)s2)/C1=N/[N+](=O)[O-]
carcinogen call (Species: MOUSE, Strain/Sex: TIF:MAGF/MALE, Route: DIET, Dose: 0, 50, 200, 500, 1250, 2500, 5000 PPM IN DIET FOR UP TO 50 WKS (STUDY DURATION: 50 WKS), Dose: 0, 50, 200, 500, 1250, 2500, 5000 PPM IN DIET FOR UP TO 50 WKS (STUDY DURATION: 50 WKS)): inactive; negative for tumors but apoptosis and necrosis observed in liver at doses of 500 | carcinogen call (Species: RAT, Strain/Sex: TIF:RAIF/FEMALE, Route: ORAL (DIET), Dose: 0, 1000, 3000 PPM FOR 1, 10, 20, 30, 40, OR 50 WKS, Dose: 0, 1000, 3000 PPM FOR 1, 10, 20, 30, 40, OR 50 WKS): inactive; negative
